Reference: patent US20240216316A1, “DIHOMO-GAMMA LINOLENIC ACID (DGLA) IS A NOVEL SENOLYTIC” (Buck Institute for Research on Aging, priority 2020, published 2024)
Entries after “also recorded” stand apart in the source; their conditions may differ.

Experiments:
[1] = biological target: delta-5-desaturase (D5D, gene name: FADS1) (Homo sapiens, UniProt O60427); conditions: as described in Obukowicz et al. (1998) / Miyahisa et al. (2016); cited from earlier work
[2] = biological target: T1, delta-6-desaturase (FADS2/D6D) (Homo sapiens, UniProt O95864); conditions: as described in Obukowicz et al. (1998); cited from earlier work
T1 sequence (O95864 1-444): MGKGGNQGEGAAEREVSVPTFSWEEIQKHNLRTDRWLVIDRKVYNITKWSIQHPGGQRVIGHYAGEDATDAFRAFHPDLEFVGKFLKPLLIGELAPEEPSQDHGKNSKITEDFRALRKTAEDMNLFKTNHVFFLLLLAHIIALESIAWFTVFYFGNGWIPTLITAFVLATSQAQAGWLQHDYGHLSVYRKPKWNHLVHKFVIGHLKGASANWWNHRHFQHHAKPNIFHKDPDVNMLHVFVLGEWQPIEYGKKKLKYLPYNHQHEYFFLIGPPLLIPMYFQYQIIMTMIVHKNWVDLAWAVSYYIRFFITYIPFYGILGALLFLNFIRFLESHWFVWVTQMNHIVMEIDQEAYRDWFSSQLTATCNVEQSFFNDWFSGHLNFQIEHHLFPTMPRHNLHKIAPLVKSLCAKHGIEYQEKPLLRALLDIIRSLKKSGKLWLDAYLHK

IMR-90 [3] = test: Cell counts of senescent vs nonsenescent IMR-90 treated with CP 24,879 plus sub-toxic DGLA; assay type: cell-based; conditions: 11.75 μM CP 24,879 in the presence of 10 μM DGLA; 72 hours; SEN(IR) vs NonSEN
Description: (§1) IMR-90 were induced to senesce via 10 Gy of ionizing radiation [SEN(IR)] and cultured for 7 days, followed by treatment with 11.75 μM CP 24,879 or vehicle (DMSO) in the presence of a sub-toxic concentration of DGLA (10 μM). Nonsenescent (NonSEN) cells served as a control. After 72 hours, cell numbers were counted and normalized to DMSO treatments.

IMR-90 [4] = test: Cell counts and light microscopy of senescent vs nonsenescent IMR-90 treated with T3364366 in 10% or 0.2% FBS; assay type: cell-based; conditions: 72 hours; for FBS dependence of cell killing: 10% FBS vs 0.2% FBS, normalized to 0 dose groups
Description: as §1, with “the indicated doses of T3364366” for “11.75 μM CP 24,879 or vehicle (DMSO)”, “10% FBS (to provide PUFAs).” for “a sub-toxic concentration of DGLA (10 μM).”
Cells from FIG. 10 were visualized by light microscopy, allowing visualization of the cytotoxic properties of T334366 at various doses. (see, e.g., FIG. 11).
IMR-90 were induced to senesce via 10 Gy of ionizing radiation [SEN(IR)] and cultured for 7 days, followed by treatment with the indicated doses of T3364366 in the presence of 10% FBS (which provides PUFAs and growth factors) (FIG. 12, panels A and B—red line, squares) or 0.2% FBS (FIG. 12, panel B—purple line, circles) (which induces quiescence, but limits the ability of cells to synthesize DGLA). Nonsenescent (NonSEN) cells served as a control. After 72 hours, cell numbers were counted and normalized to the 0 dose treatment groups.

p16-positive cells [5] = test: p16 promoter luminescence in aged P16-3MR mice before and after DGLA ethyl ester gavage; assay type: in vivo; conditions: P16-3MR mice aged 22 months; gavage 400 mg/kg for 5 consecutive days; measured two days after final gavage
Description: P16-3MR mice were aged for 22 months and luminescence (p16 promoter activity) was measured by luminometry (panel A). Mice were then gavaged with 400 mg/kg of DGLA ethyl ester or vehicle (phosal 50) for 5 consecutive days. Two days after the final gavage, luminescence was again measured (panel B). Six total mice were measured for luminescence and plotted before and after DGLA treatment (panel C).

p16-positive cells [6] = test: Senescence-associated beta-galactosidase staining of epididymal fat and liver of aged P16-3MR mice; assay type: in vivo; conditions: P16-3MR mice aged 22 months; gavage 400 mg/kg for 5 consecutive days; tissues five days after final gavage
Description: P16-3MR mice were aged for 22 months, and gavaged with 400 mg/kg of DGLA ethyl ester or vehicle (phosal 50) for 5 consecutive days. Five days after the final gavage, epididymal fat and liver tissues were isolated and stained for senescence-associated beta-galactosidase.

[7] = tested on: senescent cells [SEN(IR)]; test: Cleaved caspase 3 immunofluorescence (apoptosis) after DGLA with NS-398 or DMSO; assay type: cell-based; conditions: 25 micromolar DGLA with DMSO or NS-398; stained cells relative to DAPI positive nuclei
Description: (§2) Cells were treated as in FIG. 5. NS≡Non-senescent proliferating, SEN(IR)=IR-induced senescence, treated with 25 micromolar DGLA and either DMSO or NS-398. Panel A) Percent survival was calculated by cell counts relative to cells treated without DGLA. Panel B) Cells were stained for cleaved caspase 3 by immunofluorescence and expressed as stained cells relative to DAPI positive nuclei.

[8] = tested on: senescent cells [SEN(IR)]; test: COX-2 dependence of DGLA killing of senescent cells (NS-398 or DMSO), light microscopy and cell counts; assay type: cell-based; conditions: SEN(IR) vs non-senescent; NS-398 (COX-2 inhibitor) or DMSO for 10 days, then 25 micromolar DGLA for 2 days
Description: Cells were either irradiated [SEN(IR)] or mock irradiated (non-senescent or “NonS”) and cultured continuously for 10 days in the presence of either NS-398 (a COX-2 inhibitor) or DMSO (vehicle). Cells were then treated with either carrier (BSA) or DGLA (25 micromolar) for 2 days, and images were captured by light microscopy.
as §2
Since DGLA is converted to non-toxic arachidonic acid by D5D in most normal cells (Nakamura & Nara (2004) Annu. Rev. Nutr. 24: 345-376), the combination of gain of COX-2 and loss of D5D in senescent cells makes this an exploitable weakness. […] Its derivatives, the 1-series prostaglandins (PGX1's) are largely anti-inflammatory, and therefore may also have positive effects in the context of sterile inflammation associated with aging, so-called “inflammaging” (Franceschi & Campisi (2014) J. Gerontol. A Biol. Sci. Med. Sci. 69 (Suppl 1): S4-9).

IMR-90 fibroblasts = test: DGLA toxicity to senescent vs mock-irradiated IMR-90 fibroblasts, light microscopy; assay type: cell-based; conditions: IMR-90 mock-irradiated or 10Gy IR, 10 days later 50 micromolar DGLA for 2 days
Description: (§3) IMR-90 fibroblasts were either mock-irradiated (Mock) or irradiated with 10Gy of ionization radiation (IR) to induce senescence. 10 days later, cells were cultured in the presence of either vehicle (media plus FBS carrier) or 50 micromolar DGLA for 2 days. Cells were then photographed using light microscopy.
as §3, with “To evaluate the effect of DGLA on senescent cells, IMR-90” for “IMR-90”, “senescence. Ten” for “senescence. 10”, “days later” for “days later,”

Chain of delta-5-desaturase (D5D, gene name: FADS1) (O60427 whole entry, species assumed): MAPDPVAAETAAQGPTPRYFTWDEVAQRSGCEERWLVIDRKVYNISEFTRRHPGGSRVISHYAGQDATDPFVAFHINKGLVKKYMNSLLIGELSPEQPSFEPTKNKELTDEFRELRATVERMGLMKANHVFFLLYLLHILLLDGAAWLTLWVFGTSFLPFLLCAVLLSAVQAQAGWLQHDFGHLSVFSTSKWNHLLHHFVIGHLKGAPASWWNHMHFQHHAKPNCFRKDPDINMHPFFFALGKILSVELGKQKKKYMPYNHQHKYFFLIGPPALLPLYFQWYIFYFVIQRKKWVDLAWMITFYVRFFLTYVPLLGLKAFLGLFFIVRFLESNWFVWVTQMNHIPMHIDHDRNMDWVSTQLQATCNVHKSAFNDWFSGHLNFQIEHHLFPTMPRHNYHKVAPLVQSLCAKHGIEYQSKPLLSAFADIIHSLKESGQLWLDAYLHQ

**Q.** For `CC(C)CCOc1ccc(N)cc1.Cl` [CP 24,879, 4-(3-methylbutoxy)-benzenamine, monohydrochloride], which “inhibition of delta-5-desaturase” value [1] is on record?
**A.** inhibitor of both delta-5- and delta-6-desaturase

**Q.** And the “inhibition of delta-6-desaturase” value [2]?
**A.** inhibitor of both delta-5- and delta-6-desaturase

**Q.** What about the “killing of senescent cells (cell numbers normalized to DMSO)” value (IMR-90 [3]) of the same compound?
**A.** selectively kills senescent cells

**Q.** What does the source list for `CC(=O)NCCSc1nc2cscc2c(=O)n1-c1ccc(OCC(F)(F)F)cc1` [Compound T3364366, N-[2-[[3,4-Dihydro-4-oxo-3-[4-(2,2,2-trifluoroethoxy)phenyl]thieno[3,4-d]pyrimidin-2-yl]thio]ethyl]acetamide]?
**A.** inhibition of delta-5-desaturase [1]: specific inhibitor of delta-5-desaturase; FBS dependence of cell killing (IMR-90 [4]): only kills senescent cells in the presence of FBS; FBS dependence of cell killing (IMR-90 [4]; listed as T334366): FBS-dependent killing of senescent cells; killing of senescent cells (cell numbers normalized to DMSO) (IMR-90 [4]; indicated doses, 10% FBS, SEN(IR) vs NonSEN): selectively kills senescent cells

**Q.** Which “burden of p16-positive cells (luminescence, p16 promoter activity)” value (p16-positive cells [5]) does the source give for `CCCCC/C=C\C/C=C\C/C=C\CCCCCCC(=O)OCC` [DGLA ethyl ester] here?
**A.** lowers the burden of p16-positive cells

**Q.** What about the “senescence-associated beta-galactosidase in epididymal fat and liver tissues” value (p16-positive cells [6]) of the same compound?
**A.** lowers the burden of p16-positive cells

**Q.** What does the source list for `CCCCC/C=C\C/C=C\C/C=C\CCCCCCC(=O)O` [DGLA, dihomo-gamma-linolenic acid]?
**A.** apoptosis in senescent cells (cleaved caspase 3), COX-2 dependence [7]: induces apoptosis in senescent cells in a COX-2-dependent manner; killing of senescent cells, COX-2 dependence [8]: selectively toxic to senescent cells in a COX-2 dependent manner; also recorded: kills senescent cells in a COX-2-dependent manner; toxicity to senescent cells (IMR-90 fibroblasts): selectively toxic to senescent cells; senescence-associated beta-galactosidase in epididymal fat and liver tissues (p16-positive cells [6]): less senescence-associated beta-glactodsidase was observed
